This note sets out measurements from ChEMBL document CHEMBL5390244, “Riboflavin interactions with the chicken isolated carrier protein” (Bioorg Med Chem Lett, 2023).

Test [1] concerns the target T1, Riboflavin-binding protein (Gallus gallus) (UniProt P02752).
T1 sequence (whole entry): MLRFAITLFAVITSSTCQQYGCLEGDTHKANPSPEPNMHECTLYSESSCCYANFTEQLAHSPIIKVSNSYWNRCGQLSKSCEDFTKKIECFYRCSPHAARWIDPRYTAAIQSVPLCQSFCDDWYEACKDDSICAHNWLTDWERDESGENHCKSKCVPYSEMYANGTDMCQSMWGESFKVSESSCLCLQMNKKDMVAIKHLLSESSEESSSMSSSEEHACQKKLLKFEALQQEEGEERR
Put plainly: Binding affinity to chicken riboflavin binding protein assessed as decrease in fluorescence intensity at upto 250 uM by fluorescence based assay.

Test [2] addresses T1, Riboflavin-binding protein (Gallus gallus). Put plainly: Binding affinity to chicken riboflavin binding protein assessed as binding energy by fluorescence based analysis.

Calls of active or inactive are those of the source. The calls are words filed in the database; no cut-off is given here.

As to `Cc1cc2nc3c(=O)[nH]c(=O)nc-3n(C[C@H](O)[C@H](O)[C@H](O)CO)c2cc1C`, the result in test [1] was Active. Also, the Activity in test [2] is -11.9 kcal/mol.
On to `Cc1cc2nc3c(=O)[nH]c(=O)nc-3n(CCCCCCO)c2cc1C`, for which the result in test [1] was Active. For the same compound, the Activity in test [2] amounted to 2 kcal/mol.
